Data reported in patent US20030008925A1, “Treatment of drug-induced sleepiness” (priority 1997, published 2003).

Experiments:
Format in all cases: in vivo, human
[1] = tested on: patient under morphine treatment; assay: Pain rating on the EVA scale in patients
Text: (§1) In order to illustrate the invention, but without limiting its scope, the results of observations made confidentially on patients in the context of hospitalization are reported below. The consent of the patients was obtained after the compassionate grounds of the prescription had been explained to them.

[2] = tested on: patient under morphine treatment; assay: Sleepiness evaluated on the Epworth scale in hospitalized patients under morphine treatment
Text: the Epworth scale, while ensuring the analgesic properties of morphine and the properties of antidepressant, anxiolytic or analgesic medicaments are maintained. The patient is thus re-established in a satisfactory relational life.
as §1

[3] = Body weight (nutritional recovery) of patient; conditions: Case 1; in 10 days, under Moscontin plus Modiodal 200 mg
Procedure: Given the progression of painful phenomena, at the end of October 1997 the patient is hospitalized. At this point in time the dosage of Moscontin® is 100 mg twice every 24 hours, their EVA score is 60, and their sleepiness evaluated on the Epworth scale is 20. The Moscontin® is increased to 160 mg twice every 24 hours. After stabilization of the analgesic level at an EVA score of 30, treatment with Modiodal®, initially in a dosage of 100 mg and then rapidly 200 mg, is initiated. This dosage allows their Epworth score to drop below 10. This quality of awakening has enabled them to resume family relationships of a better quality. The efficacy of the analgesia and their better vigilance level has enabled them to take accompanied walks. A nutritional recovery manifesting itself by a weight increase of 2 kg in 10 days is also to be noted in this patient.

[4] = Case 5, morphine treatment at home (oral)
[5] = Case 2, Skenan doses doubled combined with 200 mg Modiodal

CN1CC[C@]23c4c5ccc(O)c4O[C@H]2[C@@H](O)C=C[C@H]3[C@H]1C5 [morphine]
pain rating on the EVA scale ([1]; Case 3, continuous subcutaneous morphine combined with oral clonazepam): 30 | EVA [1, 4]: 40 | state of sleepiness on the Epworth scale ([2]; Case 3, morphine 40 mg subcutaneous, before Modiodal): 20 | sleepiness (in words) [2, 4]: severe sleepiness | sleepiness index before modafinil ([2]; Case 5, under morphine, before modafinil): 22

O=C(C[S+]([O-])C(c1ccccc1)c1ccccc1)NO (stereo not drawn) [Olmifon®, benzhydrylsulphinyl-acetohydroxamic acid]
clinical results (in words) ([2]; about 1,200 to 1,800 mg per day, in 2 doses): very favourable results

NC(=O)C[S+]([O-])C(c1ccccc1)c1ccccc1 (stereo not drawn) [Modiodal®, benzhydrylsulphinyl-acetamide]
weight increase [3]: 2 kg | EVA (analgesic level) [1, 5]: 20 | Epworth score ([2]; Case 1, Modiodal 100 mg then 200 mg, with Moscontin 160 mg twice every 24 hours): below 10 | vigilance level rating (Epworth) [2, 5]: less than 10 | state of vigilance rating (Epworth) ([2]; Case 3, Modiodal 100 mg then 200 mg, with morphine 40 mg subcutaneous): 12 | sleepiness index after modafinil ([2]; Case 4, modafinil 300 mg achieved progressively, with Moscontin 100 mg x2): 11 | sleepiness index after modafinil ([2]; Case 5, modafinil 200 mg per day, with morphine 40 mg subcutaneous): 15 | clinical results (in words) ([2]; about 200 to 400 mg per day, in 1 or 2 doses): very favourable results | effect on morphine sleepiness and that associated with clonazepam (in words) ([2]; summary of pilot cases 1 to 5): efficacy
